This assay in a line: Inhibition of MCT1 in human Raji cells assessed as inhibition of cell proliferation after 96 hrs by MTT assay.

pEC50: −log10 of the molar value.

`CC(C)Cc1nn(C)c(=O)c2c(SCCCO)n(Cc3ccnc(Cl)c3)cc12`: the pEC50 was 6.00. In the case of `CC(C)Cc1nn(C)c(=O)c2c(SCCCO)n(Cc3cnc(Cl)c4ccccc34)cc12`, the pEC50 is 7.26. In the case of `CC(C)Cc1nn(C)c(=O)c2c(SCCCO)n(Cc3cc(Cl)nc4ccccc34)cc12`, the pEC50 was 7.22. Turning to `CC(C)Cc1nn(C)c(=O)c2c(SCCCO)n(Cc3ccnc(NCCCCCN)c3)cc12`, the pEC50 was 6.28. As for `CC(C)Cc1nn(C)c(=O)c2c(SCCCO)n(Cc3cc(NCCCCCN)nc4ccccc34)cc12`, the pEC50 is 7.62. For `CC(C)Cc1nn(C)c(=O)c2c(SCCCO)n(Cc3ccc(NCCCCCN)nc3)cc12`, the pEC50 was 6.38. `CC(C)Cc1nn(C)c(=O)c2c(SCCCO)n(Cc3cnc(NCCCCCN)c4ccccc34)cc12`: the pEC50 is 9.10.

In the case of `CC(C)Cc1nn(C)c(=O)c2c(SCCCO)n(Cc3ccnc(NCCCCCNC(=O)[C@@H](N)CCC(N)=O)c3)cc12`, the pEC50 is 6.30. For the compound `CC(C)Cc1nn(C)c(=O)c2c(SCCCO)n(Cc3cc(NCCCCCNC(=O)[C@@H](N)CCC(N)=O)nc4ccccc34)cc12`, the pEC50 is 9.10. With `CC(C)Cc1nn(C)c(=O)c2c(SCCCO)n(Cc3ccc(NCCCCCNC(=O)[C@@H](N)CCC(N)=O)nc3)cc12`, the pEC50 is 7.00. As to `CC(C)Cc1nn(C)c(=O)c2c(SCCCO)n(Cc3cnc(NCCCCCNC(=O)[C@@H](N)CCC(N)=O)c4ccccc34)cc12`, the pEC50 was 9.80. Consider `CC(C)Cc1nn(C)c(=O)c2c(SCCCO)n(Cc3ccc(C#CCCCOc4ccc(C[C@H](N)C(=O)O)cc4)c4ccccc34)cc12`, for which the pEC50 is 9.10. For the compound `CC(C)Cc1nn(C)c(=O)c2c(SCCCO)n(Cc3ccc(C#CCCCNC(=O)[C@@H](N)CCC(N)=O)c4ccccc34)cc12`, the pEC50 is 8.40.

For `CC(C)Cc1nn(C)c(=O)c2c(SCCCO)n(Cc3ccc(Br)c4ccccc34)cc12`, the pEC50 is 7.96. In the case of `CC(C)Cc1nn(C)c(=O)c2c(SCCCO)n(Cc3ccc(Cl)nc3)cc12`, the pEC50 was 6.16.

In general, pEC50 refers to −log10 of the EC50, conventionally taken in molar units.

The values are drawn from BindingDB's records for doi:10.1039/c5md00579e (The Scripps Research Institute, 2016).
